According to ChEMBL document CHEMBL5038635, “Discovery of Salidroside-Derivated Glycoside Analogues as Novel Angiogenesis Agents to Treat Diabetic Hind Limb Ischemia” (J Med Chem, 2022):
The source made the active and inactive calls. No cut-off for these calls is given here.

How the values were obtained:
[1] = Toxicity in diabetic HLI C57BL/6 mouse model assessed as lung pathology at 30 mg/kg, IM administered by HE staining based assay; format: organism-based; conditions: in vivo
C2C12 [2] = assay: Angiogenesis activity in mouse C2C12 cells assessed as increase in cell migration at 30 uM under hyperglycemic condition for 12 hrs followed by hypoxia for 24 hrs presence of MeOE2 inhibitor by crystal violet dye based transwell assay; format: functional; conditions: time 36.0 hrs
Mus musculus [3] = assay: Antidiabetic activity in diabetic HLI C57BL/6 mouse model assessed as suppression of apoptotic rate in skeletal muscle cell in gastrocnemius muscle at 15 to 30 mg/kg, IM administered by TUNEL assay; format: functional, organism-based; conditions: dose 15-30 mg/kg
Mus musculus [4] = assay: Angiogenic activity in diabetic HLI C57BL/6 mouse model assessed as increase in number of PECAM-1/alpha-SMA double-positive cells at 30 mg/kg, im administered for 21 days followed by surgery by immunofluorescence analysis; format: functional, organism-based; conditions: time 21.0 day
C2C12 [5] = assay: Reversal of cell migration in mouse C2C12 cells at 30 uM under hyperglycemic condition incubated for 24 hrs by crystal violet dye based transwell chamber assay; format: functional
[6] = Toxicity in diabetic HLI C57BL/6 mouse model assessed as spleen pathology at 30 mg/kg, IM administered by HE staining based assay; format: organism-based; conditions: in vivo
C2C12 [7] = assay: Upregulation of FGF2 protein expression in mouse C2C12 cells at 30 uM by Western blot analysis; format: functional, cell-based
HUVEC [8] = assay: Induction proliferation of human HUVEC cells assessed as increase in number of EdU-positive cells using conditioned medium of mouse C2C12 cells with silenced HIF-1alpha treated at 30 uM under hyperglycemic condition for 12 hrs followed by hypoxia for 24 hrs in presence of VEGFR inhibitor Ki8751 by EdU-incorporation assay; format: functional, cell-based; conditions: time 36.0 hrs
Mus musculus [9] = assay: Antidiabetic activity in diabetic HLI C57BL/6 mouse model assessed as increase in blood perfusion recovery at 30 mg/kg administered intramuscularly measured after 21 days; format: functional; conditions: time 21 day
Mus musculus [10] = assay: Antidiabetic activity in diabetic HLI C57BL/6 mouse model assessed as effect on blood glucose level at 15 mg/kg administered intramuscular; format: functional, organism-based
C2C12 [11] = assay: Reversal of hyperglycemia-induced VEGF-A protein level reduction in mouse C2C12 cells measured at 30 uM by ELISA; format: functional, cell-based
C2C12 [12] = assay: Upregulation of TNFRSF12A protein expression in mouse C2C12 cells at 30 uM by Western blot analysis; format: functional, cell-based
HUVEC [13] = assay: Induction proliferation of human HUVEC cells assessed as increase in number of EdU-positive cells using conditioned medium of mouse C2C12 cells treated at 30 uM under hyperglycemic condition for 12 hrs followed by hypoxia for 24 hrs by EdU-incorporation assay; format: functional; conditions: time 36 hrs
[14] = Permeability coefficient across basolateral to apical side in human Caco-2 cells by HPLC-UV analysis
Mus musculus [15] = assay: Angiogenic activity in diabetic HLI C57BL/6 mouse model assessed as increase in number of PECAM-1-positive cells at 30 mg/kg administered intramuscularly for 21 days followed by surgery by immunofluorescence analysis; format: functional, organism-based; conditions: time 21.0 day
HUVEC [16] = assay: Angiogenesis activity in human HUVEC cells assessed as suppression of cell migration using conditioned medium of mouse C2C12 cells treated at 30 uM under hyperglycemic condition for 12 hrs followed by hypoxia for 24 hrs by crystal violet dye based transwell assay; format: functional; conditions: time 36.0 hrs
C2C12 [17] = assay: Upregulation of ANGPTL4 protein expression in mouse C2C12 cells at 30 uM by Western blot analysis; format: functional, cell-based
Mus musculus [18] = assay: Angiogenic activity in diabetic HLI C57BL/6 mouse model assessed as VEGF-A protein expression at 30 mg/kg, im administered for 21 days followed by surgery by Western blot analysis; format: functional, organism-based; conditions: time 21.0 day
MOVAS-1 [19] = assay: Angiogenesis activity in mouse MOVAS-1 assessed as increase of cell migration using conditioned medium of mouse C2C12 cells with silenced HIF-1alpha treated at 30 uM under hyperglycemic condition for 12 hrs followed by hypoxia for 24 hrs by crystal violet dye based transwell assay; format: functional; conditions: time 36.0 hrs
C2C12 [20] = assay: Induction of proliferation of hyperglycemia-induced mouse C2C12 cell death assessed as increase in number of EdU-positive cells at 7.5 to 300 uM pretreated with compound under hyperglycemia condition for 12 hr followed by hypoxia for 24 hrs; format: functional, cell-based; conditions: dose 7.5-300 µM, time 36.0 hrs
C2C12 [21] = assay: Angiogenic activity in mouse C2C12 cells assessed as accumulation HIF-1alpha protein expression at 300 uM by Western blot analysis; format: functional, cell-based
Mus musculus [22] = assay: Angiogenic activity in diabetic HLI C57BL/6 mouse model assessed as increase in number of alpha-SMA-positive cells at 30 mg/kg, im administered for 21 days followed by surgery by immunofluorescence analysis; format: functional, organism-based; conditions: time 21.0 day
C2C12 [23] = assay: Apoptotic rate in mouse C2C12 cells with silenced HIF-1alpha assessed as late apoptotic cells at 30 uM by AnnexinV-FITC/PI staining based FACS analysis (reference value: 9.62 %); format: functional
C2C12 [24] = assay: Induction of F-actin polymerization in mouse C2C12 cells at 30 uM pretreated with compound for 12 hr followed by hypoxic condition for 24 hrs by phalloidin staining based confocal microscopy; format: functional, cell-based; conditions: time 36.0 hrs
HUVEC [25] = assay: Antiangiogenesis activity in human HUVEC cells assessed as suppression of cell migration using conditioned medium of mouse C2C12 cells with silenced HIF-1alpha treated at 30 uM under hyperglycemic condition for 12 hrs followed by hypoxia for 24 hrs in presence of PDGF-BB inhibitor CP868596 by crystal violet dye based transwell assay; format: functional; conditions: time 36.0 hrs
HUVEC [26] = assay: Angiogenic activity in human HUVEC cells assessed as suppression of F-actin polymerization at 30 uM using conditioned medium of mouse C2C12 cells treated at 30 uM under hyperglycemic condition for 12 hrs followed by hypoxia for 12 hrs by phalloidin staining based confocal microscopy; format: functional, cell-based; conditions: time 24.0 hrs
MOVAS-1 [27] = assay: Angiogenic activity in mouse MOVAS-1 cells assessed as suppression of F-actin polymerization at 30 uM using conditioned medium of mouse C2C12 cells treated at 30 uM under hyperglycemic condition for 12 hrs followed by hypoxia for 12 hrs by phalloidin staining based confocal microscopy; format: functional, cell-based; conditions: time 24.0 hrs

## COc1ccc(Cc2cccc(O[C@@H]3O[C@H](CO)[C@@H](O)[C@H](O)[C@H]3O)c2)cc1
[1]
  Activity: Non-Toxic
C2C12 [2]
  Activity: Active
Mus musculus [3]
  Activity: Active
Mus musculus [4]
  Activity: Active
C2C12 [5]
  Activity: Active
[6]
  Activity: Non-Toxic
C2C12 [7]
  Activity: Active
HUVEC [8]
  Activity: inactive
Mus musculus [9]
  Activity: 80%
Mus musculus [10]
  Activity: Active
C2C12 [11]
  Activity: Active
C2C12 [12]
  Activity: Active
HUVEC [13]
  fold change (FC): 2
[14]
  Papp B→A: 1.11 ×10⁻⁶ cm/s
Mus musculus [15]
  Activity: Active
HUVEC [16]
  Activity: Active
C2C12 [17]
  Activity: Active
Mus musculus [18]
  Activity: Active
MOVAS-1 [19]
  Activity: Active
C2C12 [20]
  Activity: Active
C2C12 [21]
  inhibition: Active
Mus musculus [22]
  Activity: Active
C2C12 [23]
  Activity: 14.63%
C2C12 [24]
  Activity: Active
HUVEC [25]
  Activity: inactive
HUVEC [26]
  Activity: Active
MOVAS-1 [27]
  Activity: Active
